These are literature values, as cited in patent publication US20230159896A1, “MULTI-LINEAGE CARDIOVASCULAR MICROFLUIDIC ORGAN-CHIP” (CEDARS-SINAI MEDICAL CENTER, priority 2020, published 2023).

For data set [1] the following is noted: clinical, at common dose; for Cmax: read-out: Molar Cmax.
Data set [2] relates to patient-specific hiPSC-CMs.
For data set [3] the following is noted: for Cardiovascular side effects: patients.
The test system of data set [4] is zebrafish. The conditions noted are these: zebrafish model.
For data set [5], the system named is PI3K/Akt. The conditions noted are these: hiPSC-CMs, previous study.

“Also recorded” adds a separate entry of the source.

The term Cmax denotes the highest concentration seen after dosing. `COc1cc2nccc(Oc3ccc(NC(=O)NC4CC4)c(Cl)c3)c2cc1C(N)=O` [lenvatinib]: in data set [1], the “Peak plasma concentration (Cmax)” value was 660 ng/mL and the Cmax is 1540 nM.

With `COc1cc2c(Nc3ccc(Br)cc3F)ncnc2cc1OCC1CCN(C)CC1` [vandetanib], in data set [2] (clinically-relevant concentrations, TKIs with FDA black-box warnings), the hiPSC-CM contractile function entry was “contractile dysfunction”. The “Peak plasma concentration (Cmax)” value in data set [1] is on record as 960 ng/mL.

With `Cc1ccc(Nc2nccc(N(C)c3ccc4c(C)n(C)nc4c3)n2)cc1S(N)(=O)=O` [pazopanib], the Cardiovascular side effects result in data set [3] is recorded as “may cause heart failure or vascular toxicity”. In addition, in data set [1], the “Peak plasma concentration (Cmax)” value was 1960 ng/mL and the Cmax is 3650 nM.

Regarding `CNC(=O)c1ccccc1Sc1ccc2c(/C=C/c3ccccn3)n[nH]c2c1` [axitinib], in data set [1], the “Peak plasma concentration (Cmax)” value is recorded as 12.6 ng/mL and the Cmax was 900 nM.

With `CNC(=O)c1cc(Oc2ccc(NC(=O)Nc3ccc(Cl)c(C(F)(F)F)c3)c(F)c2)ccn1` [regorafenib], in data set [1], the “Peak plasma concentration (Cmax)” value is 2500 ng/mL and the Cmax is 8080 nM.

For the compound `CCN(CC)CCNC(=O)c1c(C)[nH]c(/C=C2\C(=O)Nc3ccc(F)cc32)c1C` [sunitinib], the Survival result in data set [4] is reported as “decrease survival”. Further, the Cardiovascular side effects result in data set [3] was “cause hypertension, ischemia, and cardiac side-effects; also recorded: may cause heart failure or vascular toxicity”. In data set [1], the “Peak plasma concentration (Cmax)” value is recorded as 81.9 ng/mL and the Cmax was 1200 nM.

As for `CNC(=O)c1cc(Oc2ccc(NC(=O)Nc3ccc(Cl)c(C(F)(F)F)c3)cc2)ccn1` [sorafenib], in data set [4], the Survival result is recorded as “decrease survival”. The Cardiovascular side effects entry in data set [3] is “cause hypertension, ischemia, and cardiac side-effects; also recorded: may cause heart failure or vascular toxicity”.

Regarding `COc1cc2ncnc(Nc3ccc(F)c(Cl)c3)c2cc1OCCCN1CCOCC1` [gefitinib], the Cardiovascular side effects result in data set [3] is “typically does not exhibit cardiotoxic side effects”.

For `Cc1ccc(C(=O)Nc2ccc(CN3CCN(C)CC3)c(C(F)(F)F)c2)cc1C#Cc1cnc2cccnn12` [ponatinib], the “Cytotoxicity on hiPSC-CMs relative to other TKIs” value in data set [2] (previous hiPSC-CM study) is recorded as “most cytotoxic of all TKIs studied”. Moreover, the “FDA black box warning” value in data set [3] (human, in vivo) is “arterial occlusions and venous thromboembolisms as well as hepatotoxicity”. Further, in data set [3], the Cardiovascular side effects result is “severe vascular toxicity”. Further, in data set [1], the Cmax is 140 nM.

Regarding insulin: Akt pathway activator, the “Effect of co-treatment on TKI-induced CM toxicity” value in data set [2] (co-treatment with Akt pathway activators) was “reversed TKI-induced CM toxicity”. Besides, the PI3K/Akt phosphorylation entry in data set [5] is reported as “significantly enhanced”.
